The target of this experiment is T1, Tau K18 fragment (amino acids 244 to 372 of human Tau441) aggregates (Homo sapiens, UniProt P10636).
T1 construct: encompassing amino acids 244 to 372 of the longest isoform (2N4R) of human Tau441; host or cells: bacteria
As to the kind of experiment: Tau K18 disaggregation assay by ThT. Type of experiment: biochemical. As to conditions: 2 μM K18 aggregates, 30 minutes at RT, ThT fluorescence. As for the experimental part:
Tau K18 Disaggregation Assay by ThT
Compounds were dissolved in anhydrous dimethyl sulfoxide (DMSO, Sigma-Aldrich) to reach a concentration of 10 mM. K18 aggregates and serial dilutions of compounds were mixed together in PBS (volume 50 μL) to a final concentration of 2 μM of K18 aggregates and from 160 to 0.04 μM of compounds. The mixture was incubated for 30 minutes at room temperature (RT), then 40 μL of this mixture were transferred into a black 384-well plate assay (Perkin-Elmer) and mixed with 10 μL of 100 μM ThT in 250 mM glycine (both from Sigma-Aldrich) in PBS. Fluorescence (relative fluorescence units; RFU) was measured in monoplicate or duplicate on a Tecan reader (excitation: 440 nm; emission: 485 nm). Percentage of K18 disaggregation was then calculated and half maximal effective concentration (EC50) was determined using GraphPad Prism version 5 (GraphPad Software) assuming a one-binding site fitting model.

Where only a bound is given, the exact number is not on record here.

T1 sequence (P10636 561-689): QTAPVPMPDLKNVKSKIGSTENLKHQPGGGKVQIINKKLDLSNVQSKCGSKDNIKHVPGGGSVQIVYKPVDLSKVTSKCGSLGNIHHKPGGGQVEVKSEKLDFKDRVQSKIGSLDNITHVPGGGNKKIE

What is called EC50 is the concentration giving half of the maximal effect. A high value points to a less potent agent. As to `Cn1c2c(c3cc(F)ccc31)CN(c1ccc3nc(N4CCOCC4)sc3c1)CC2` [Example 1], the concentration giving a half-maximal response (EC50) is under 10 µM.

For the molecule `CN(C)c1nc2ccc(N3CCc4[nH]c5ccc(F)cc5c4C3)cc2s1` [Example 7], the EC50 is under 10 µM.

`CN(C)c1nc2cc(N3CCc4[nH]c5ccc(F)cc5c4C3)ccc2o1` [Example 10] gave an EC50 of under 10 µM.

On to `CN(C)c1nc2cc(N3CCc4[nH]c5ccc(F)cc5c4C3)ccc2s1` [Example 11], for which the EC50 was under 10 µM.

`Cn1c2c(c3cc(F)ccc31)CN(c1ccc3nc(N4CCOCC4)oc3c1)CC2` [Example 15]: the EC50 was 25 to 50 µM.

Turning to `CN(C)c1nc2cc(N3CCc4c(c5cc(F)cnc5n4C)C3)ccc2o1` [Example 38], the EC50 was under 10 µM.

Molecule `CNc1nc2ccc(N3CCc4c(c5cc(OC)ccc5n4C)C3)cc2s1` [Example 41] returned an EC50 of under 10 µM.

`Fc1cccc2[nH]c3c(c12)CN(c1ccc2oc(N4CCOCC4)nc2c1)CC3` [Example 53] came in with an EC50 of under 10 µM.

Turning to `Fc1ccc2[nH]c3c(c2c1)CN(c1cnc2nc(N4CCOCC4)sc2c1)CC3` [Example 71], the EC50 is under 10 µM.

Turning to `Fc1ccc2[nH]c3c(c2c1)CN(c1ccc2nc(N4CCOCC4)sc2n1)CC3` [Example 72], the EC50 was under 10 µM.

Consider `Fc1ccc2c3c([nH]c2c1)CCN(c1cnc2nc(N4CCOCC4)sc2c1)C3` [Example 73], for which the 50% effective concentration (EC50) is under 10 µM.

In turn, `Fc1ccc2[nH]c3c(c2c1)CN(c1ccc(N2CCOCC2)cn1)CC3` [Example 76] gave an EC50 of under 10 µM.

For the molecule `Cn1c2c(c3cc(F)ccc31)CN(c1ccc(N3CCOCC3)cn1)CC2` [Example 77], the EC50 was under 10 µM.

The molecule `Fc1ccc2c3c([nH]c2c1)CCN(c1ccc(N2CCOCC2)cn1)C3` [Example 78] displayed an EC50 of under 10 µM.

In turn, `Fc1ccc2c3c([nH]c2c1)CCN(c1ccc(N2CCOCC2)nc1)C3` [Example 79] returned a 50% effective concentration (EC50) of under 10 µM.

As for `Cn1c2c(c3ccc(F)cc31)CN(c1ccc(N3CCOCC3)cn1)CC2` [Example 80], the concentration for a half-maximal effect (EC50) was under 10 µM.

Molecule `Fc1cccc2[nH]c3c(c12)CN(c1ccc(N2CCOCC2)nc1)CC3` [Example 81] came in with an EC50 of 10 to 25 µM.

`Fc1cccc2[nH]c3c(c12)CN(c1ccc(N2CCOCC2)cn1)CC3` [Example 82] returned an EC50 of 10 to 25 µM.

Take `Cn1c2c(c3c(F)cccc31)CN(c1ccc(N3CCOCC3)nc1)CC2` [Example 83]: the concentration giving a half-maximal response (EC50) was under 10 µM.

Take `Cn1c2c(c3ccccc31)CN(c1ccc(N3CCOCC3)cn1)CC2` [Example 84]: the EC50 was under 10 µM.

`c1ccc2c3c([nH]c2c1)CCN(c1ccc(N2CCOCC2)cn1)C3` [Example 85] had a 50% effective concentration (EC50) of under 10 µM.

As to `c1ccc2c3c([nH]c2c1)CCN(c1ccc(N2CCOCC2)nc1)C3` [Example 86], the concentration giving a half-maximal response (EC50) lay within 10 to 25 µM.

In turn, `Cn1c2c(c3ccc(F)cc31)CN(c1ccc(N3CCOCC3)nc1)CC2` [Example 87] displayed an EC50 of under 10 µM.

As to `Fc1ccc2c3c([nH]c2c1)CCN(c1ccc2nc(N4CCOCC4)sc2n1)C3` [Example 88], the concentration for a half-maximal effect (EC50) was under 10 µM.

Molecule `Fc1ccc2c3c([nH]c2c1)CCN(c1cc2sc(N4CCOCC4)nc2cn1)C3` [Example 89, 4-(6-(7-fluoro-1,3,4,5-tetrahydro-2H-pyrido[4,3-b]indol-2-yl)thiazolo[4,5-c]pyridin-2-yl)morpholine] displayed a concentration giving a half-maximal response (EC50) of under 10 µM.

With `Fc1ccc2[nH]c3c(c2c1)CN(c1cc2sc(N4CCOCC4)nc2cn1)CC3` [Example 90], the 50% effective concentration (EC50) is under 10 µM.

`Fc1ccc2c3c([nH]c2c1)CCN(c1ccc2ccc(N4CCOCC4)nc2c1)C3` [Example 91] came in with a 50% effective concentration (EC50) of 10 to 25 µM.

Turning to `Fc1ccc2c3c([nH]c2c1)CCN(c1ccc2nc(N4CCOCC4)ccc2c1)C3` [Example 92], the EC50 is under 10 µM.

`COc1ccc2nc(N3CCc4c(c5cc(F)ccc5n4C)C3)ccc2c1` [Example 93]: the EC50 was under 10 µM.

With `COc1cncc(N2CCc3c(c4cc(F)ccc4n3C)C2)c1` [Example 94], the EC50 was under 10 µM.

`COc1cc(N2CCc3c(c4cc(F)ccc4n3C)C2)ccn1` [Example 95]: the half-maximal effective concentration (EC50) is under 10 µM.

In turn, `Cn1c2c(c3cc(F)ccc31)CN(c1ccc(N3CCOCC3)cc1)CC2` [Example 96] registered an EC50 of under 10 µM.

`COc1ccc2c(c1)c1c(n2C)CCN(c2ccc3oc(N(C)C)nc3c2)C1` [Example 96a] came in with an EC50 of 10 to 25 µM.

As for `c1cnc2oc3c(c2c1)CN(c1ccc2oc(N4CCOCC4)nc2c1)CC3` [Example 96b], the EC50 was under 10 µM.

In the case of `Cn1c2c(c3cc(F)ccc31)CN(c1cncc(C(F)(F)F)c1)CC2` [Example 96d], the EC50 was under 10 µM.

As for `Cn1c2c(c3cc(F)ccc31)CN(c1ccc(F)cn1)CC2` [Example 96e], the 50% effective concentration (EC50) lay within 25 to 50 µM.

The molecule `Fc1ccc2[nH]c3c(c2c1)CN(c1ccc(N2CCOCC2)nn1)CC3` [Example 97] displayed a concentration for a half-maximal effect (EC50) of under 10 µM.

`CNc1nc2ccc(N3CCc4[nH]c5ccc(F)cc5c4C3)cc2o1` [Example 98]: the EC50 is under 10 µM.

The molecule `Fc1ccc2[nH]c3c(c2c1)CN(c1ccnc(N2CCOCC2)n1)CC3` [Example 99] displayed a concentration for a half-maximal effect (EC50) of 25 to 50 µM.

As for `Fc1ccc2[nH]c3c(c2c1)CN(c1cnc(N2CCOCC2)cn1)CC3` [Example 100], the EC50 lay in the range of 25 to 50 µM.

`Fc1ccc2c3c([nH]c2c1)CCN(c1ccc(N2CCOCC2)nn1)C3` [Example 101]: the 50% effective concentration (EC50) was under 10 µM.

The molecule `Fc1ccc2c3c([nH]c2c1)CCN(c1ccc(N2CC4CCC(C2)O4)nn1)C3` [Example 102] displayed an EC50 of 25 to 50 µM.

Turning to `Fc1ccc2c3c([nH]c2c1)CCN(c1cnc(N2CCOCC2)cn1)C3` [Example 103], the 50% effective concentration (EC50) was under 10 µM.

In turn, `Fc1ccc2[nH]c3c(c2c1)CN(c1ncc2nc(N4CCOCC4)sc2n1)CC3` [Example 104] yielded an EC50 of under 10 µM.

In turn, `Fc1ccc2[nH]c3c(c2c1)CN(c1cnc(N2C4CCC2COC4)cn1)CC3` [Example 105] came in with a concentration for a half-maximal effect (EC50) of under 10 µM.

In turn, `Fc1ccc2[nH]c3c(c2c1)CN(c1ccc2nc(N4CCOCC4)ccc2n1)CC3` [Example 105a] displayed an EC50 of under 10 µM.

Consider `Fc1ccc2c3c([nH]c2c1)CCN(c1ccc2nc(N4CCOCC4)ccc2n1)C3` [Example 105b], for which the EC50 is under 10 µM.

On to `Fc1ccc2c3c([nH]c2c1)CCN(c1ncc2nc(N4CCOCC4)sc2n1)C3` [Example 105f], for which the EC50 was under 10 µM.

As for `Fc1ccc2c3c([nH]c2c1)CCN(c1nc2cc(N4CCOCC4)ccc2o1)C3` [Example 106], the EC50 was under 10 µM.

Regarding `Fc1ccc2c3c([nH]c2c1)CCN(c1nc2cc(N4CCOCC4)ccc2s1)C3` [Example 107], the concentration for a half-maximal effect (EC50) was under 10 µM.

As for `Fc1ccc2c3c([nH]c2c1)CCN(c1nc2ccc(N4CCOCC4)cc2s1)C3` [Example 108], the half-maximal effective concentration (EC50) is under 10 µM.

As for `Fc1ccc2c3c([nH]c2c1)CCN(c1nc2ccc(N4CCOCC4)cc2o1)C3` [Example 109], the EC50 is under 10 µM.

With `Fc1ccc2c3c([nH]c2c1)CCN(c1cc2ccc(N4CCOCC4)nc2cn1)C3` [Example 110], the concentration giving a half-maximal response (EC50) is under 10 µM.

In turn, `Fc1cccc2c3c([nH]c12)CCN(c1ccc2oc(N4CCOCC4)nc2c1)C3` [Example 111] had a concentration for a half-maximal effect (EC50) of under 10 µM.

As to `Fc1ccc2[nH]c3c(c2c1)CN(c1cnc2nc(N4CCOCC4)ccc2c1)CC3` [Example 112], the EC50 is under 10 µM.

On to `Fc1ccc2[nH]c3c(c2c1)CN(c1ccc2nc(N4CCOCC4)ccc2c1)CC3` [Example 113], for which the EC50 was under 10 µM.

`Fc1ccc2[nH]c3c(c2c1)CN(c1ccc2ccc(N4CCOCC4)nc2c1)CC3` [Example 114] showed a 50% effective concentration (EC50) of 10 to 25 µM.

`Fc1ccc2[nH]c3c(c2c1)CN(c1ccc(N2CCOCC2)cc1)CC3` [Example 115]: the EC50 was under 10 µM.

Turning to `COCCN(C)c1nc2cc(N3CCc4[nH]c5cc(F)ccc5c4C3)ccc2o1` [Example 116], the 50% effective concentration (EC50) was under 10 µM.

Take `Fc1ccc2c3c([nH]c2c1)CCN(c1ccc(N2CCOCC2)cc1)C3` [Example 117]: the concentration for a half-maximal effect (EC50) is under 10 µM.

Regarding `COCCNc1nc2cc(N3CCc4[nH]c5cc(F)ccc5c4C3)ccc2o1` [Example 118], the EC50 was in the range of 10 to 25 µM.

`Cn1c2c(c3ccccc31)CN(c1ccc(N3CCOCC3)nc1)CC2` [Example 119] showed an EC50 of under 10 µM.

The molecule `Cn1c2c(c3cccc(F)c31)CN(c1ccc3oc(N4CCOCC4)nc3c1)CC2` [Example 120] gave an EC50 of under 10 µM.

Molecule `N#Cc1ccc(N2CCc3[nH]c4cc(F)ccc4c3C2)nc1` [Example 121] displayed a 50% effective concentration (EC50) of under 10 µM.

`Fc1ccc2c3c([nH]c2c1)CCN(c1ccc2cc(N4CCOCC4)ncc2c1)C3` [Example 122] had an EC50 of under 10 µM.

In turn, `N#Cc1ccc(N2CCc3[nH]c4cc(F)ccc4c3C2)cn1` [Example 123] yielded an EC50 of under 10 µM.

With `Fc1ccc2[nH]c3c(c2c1)CN(c1cccc2oc(N4CCOCC4)nc12)CC3` [Example 124], the concentration for a half-maximal effect (EC50) is under 10 µM.

The molecule `Fc1ccc2c3c([nH]c2c1)CCN(c1ccc2oc(N4CCOC5(CCC5)C4)nc2c1)C3` [Example 125] displayed an EC50 of under 10 µM.

In turn, `C[C@@H]1COCCN1c1nc2cc(N3CCc4[nH]c5cc(F)ccc5c4C3)ccc2o1` [Example 126] came in with an EC50 of under 10 µM.

`COc1cccc2c3c([nH]c12)CCN(c1ccc2oc(N4CCOCC4)nc2c1)C3` [Example 127] displayed a 50% effective concentration (EC50) of under 10 µM.

Regarding `C[C@H]1CN(c2nc3cc(N4CCc5[nH]c6cc(F)ccc6c5C4)ccc3o2)CCO1` [Example 128], the half-maximal effective concentration (EC50) is under 10 µM.

`C[C@H]1COCCN1c1nc2cc(N3CCc4[nH]c5cc(F)ccc5c4C3)ccc2o1` [Example 129] yielded a 50% effective concentration (EC50) of under 10 µM.

For the origin of these results see patent publication US10633383B2, “Compounds for the treatment, alleviation or prevention of disorders associated with Tau aggregates” (AC Immune SA, priority 2018, dated 2020).
